# From patent publication US11022604B2, “Dock derived compound against laminin receptor (37 LR) and uses thereof” (Purdue Research Foundation, priority 2017, dated 2021)
# Columns and labels:
# [1] = system: c-MYC binding site luciferase reporter in PC-3 cells; assay: c-MYC binding site luciferase reporter assay; assay type: cell-based; conditions: 24 hours
# Procedure: FIG. 9. Luciferase promoter Assay in PC-3 cells. PC-3 cells were treated with 1, 10, 50 μM C3 or DMSO control for 24 hours after a 24 transfection with Myc-Luc and B-Gal plasmid to normalize for transfection efficiency (n=6, mean±SEM). Relative light units calculated by normalizing Myc-Luc signal to B-gal signal. A one-way ANOVA was used for statistical analysis (P<0.05). The linear trend was also significant (pose test for linear trend, p, 0.05).
# Wound Healing Assay. PC-3 cells were seeded in 6 well plates at 3×10^5 cells per well in complete media until the cells reached confluency. Three horizontal and three vertical scratches were made in the confluent monolayers using a standard 200 μL pipette tip and cellular debris were removed by washing with 1×DPBS three times. 1×RPMI-1640 supplemented with C3 or DMSO was added and cells were incubated for 48 hours as described previously. […] Images were uploaded and analyzed for scratch geometry using the tscratch program (96). First, global thresholding was performed, then individual images were manually inspected for single image threshold adjustment and scratch geometries were quantified. […] The samples were analyzed using the Dionex UltiMate 3000 RSLC Nano System coupled to the Q Exactive™ HF Hybrid Quadrupole-Orbitrap MS (Thermo Scientific). […]
# THP-1 human monocytes = assay: Inflammatory gene expression (qPCR) in LPS-stimulated THP-1 macrophages; assay type: cell-based
# Procedure: FIG. 17—Fold change in inflammatory gene expression when THP-1 monocytes are treated with Compounds of Interest. […] PL, PMA-differentiated and treated with LPS. P18, PEDF peptide. (*, p<0.05 relative to PL)
# Cell Culture. THP-1 human monocytes were purchased from ATCC (Manassas, Va.) and cultured in DMEM/10% FBS/1% Anti-Anti (Gibco). The monocytes were differentiated into macrophages with 5 ng/ml […] (PMA) for 48 h and pretreated with drugs for 6 h. Lipopolysaccharide (LPS, 10 ng/ml) stimulation was performed for 1 h and cells were collected for assays. Human adipose-derived mesenchymal stromal/stem cells (ASC) were purchased from LaCell, LLC (Metairie, La.) and grown on fibronectin-coated plates in MCDB-201/DMEM/10% FBS media. RNA isolation and qPCR. RNA was isolated from cell pellets using an RNAeasy kit (Qiagen) according to manufacturers' specifications for tissue samples. 1 μg RNA was reverse transcribed using a AmfiRivert kit (Genedepot) and 2 μl used in a SYBR green quantitative PCR reaction for detecting differences in gene expression relative to beta-actin control. Luciferase Assays. THP-1 human monocytes were seeded in OptiMEM/1% anti-anti (Gibco) and transfected using Lipofectamine LTX (Invitrogen, Carlsbad, Calif.) in a 96-well format in white opaque plates. […] The samples were read in a BiotekNeo (Bindley Bioscience Center). […]
compound,measurement,setting,value
"O=C(c1cc(F)cc2c1OCOC2)N1CCN(C2c3ccccc3-c3ccccc32)CC1 [Compound C3, [4-(9h-fluoren-9-yl)piperazino](6-fluoro-4h-1,3-benzodioxin-8-yl)methanone]",reduction of c-myc binding activity (luciferase reporter),"[1]; PC-3, 50 μM",36%
same,effect on c-myc luciferase reporter activity,"[1]; PC-3, 1 and 10 μM",no significant effect
same,reduction of IL-1β expression,THP-1 human monocytes,~8 fold
